The values below come from PMC6351562, “Structure, function, and inhibition of drug reactivating human gut microbial β-glucuronidases” (Scientific Reports, 2019).

Holding throughout (assay type): biochemical
Experiment [1] concerns the target T1, Ruminococcus gnavus GUS (RgGUS) (Mediterraneibacter gnavus, UniProt A0A2N5PVZ8).
T1 sequence (A0A2N5PVZ8 1-603): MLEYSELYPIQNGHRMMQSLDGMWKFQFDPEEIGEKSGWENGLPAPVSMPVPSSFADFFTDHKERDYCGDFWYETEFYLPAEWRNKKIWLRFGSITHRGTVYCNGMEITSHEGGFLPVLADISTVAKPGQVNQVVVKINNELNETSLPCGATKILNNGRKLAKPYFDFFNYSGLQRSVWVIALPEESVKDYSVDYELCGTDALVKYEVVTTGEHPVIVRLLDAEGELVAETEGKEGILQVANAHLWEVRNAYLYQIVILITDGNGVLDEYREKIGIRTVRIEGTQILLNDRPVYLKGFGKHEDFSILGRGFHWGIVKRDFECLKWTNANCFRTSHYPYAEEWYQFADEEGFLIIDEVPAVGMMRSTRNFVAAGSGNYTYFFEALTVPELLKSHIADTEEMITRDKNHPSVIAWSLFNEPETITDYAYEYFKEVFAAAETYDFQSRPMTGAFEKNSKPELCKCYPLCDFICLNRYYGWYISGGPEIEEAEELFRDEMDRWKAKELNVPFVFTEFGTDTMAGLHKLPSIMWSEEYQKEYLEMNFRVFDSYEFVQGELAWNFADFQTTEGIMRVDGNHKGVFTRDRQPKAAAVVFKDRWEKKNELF
The experiment can be described thus: In vitro DCF-G processing assay (UPLC). To be noted: DCF-G as substrate, 400 µM; pH 6.5; 37 °C.

Experiment [2] has as its target T2, Eubacterium eligens GUS (EeGUS) (Lachnospira eligens, UniProt C4Z6Z2).
T2 sequence (C4Z6Z2 1-611): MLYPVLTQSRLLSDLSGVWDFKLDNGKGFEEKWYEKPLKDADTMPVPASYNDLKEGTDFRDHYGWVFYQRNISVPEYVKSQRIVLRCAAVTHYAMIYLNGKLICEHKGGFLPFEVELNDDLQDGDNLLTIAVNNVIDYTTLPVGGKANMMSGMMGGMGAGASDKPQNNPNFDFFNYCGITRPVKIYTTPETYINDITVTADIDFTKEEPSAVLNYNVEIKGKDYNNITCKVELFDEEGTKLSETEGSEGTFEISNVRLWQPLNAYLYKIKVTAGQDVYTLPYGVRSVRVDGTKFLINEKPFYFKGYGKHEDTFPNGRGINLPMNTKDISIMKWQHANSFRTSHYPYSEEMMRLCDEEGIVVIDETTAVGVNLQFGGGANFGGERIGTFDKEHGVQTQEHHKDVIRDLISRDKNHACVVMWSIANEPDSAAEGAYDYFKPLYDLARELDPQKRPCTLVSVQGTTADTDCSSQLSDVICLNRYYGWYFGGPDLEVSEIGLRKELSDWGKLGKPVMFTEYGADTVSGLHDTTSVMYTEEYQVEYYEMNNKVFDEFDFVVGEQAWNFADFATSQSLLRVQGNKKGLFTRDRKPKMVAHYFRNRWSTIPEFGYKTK
As to the kind of experiment: In vitro DCF-G processing assay (UPLC). To be noted: DCF-G as substrate, 400 µM; pH 6.5; 37 °C.

Experiment [3] addresses T3, Lactobacillus rhamnosus GUS (LrGUS) (Lacticaseibacillus rhamnosus, UniProt A0A2A5L2J1).
T3 sequence (A0A2A5L2J1 1-603): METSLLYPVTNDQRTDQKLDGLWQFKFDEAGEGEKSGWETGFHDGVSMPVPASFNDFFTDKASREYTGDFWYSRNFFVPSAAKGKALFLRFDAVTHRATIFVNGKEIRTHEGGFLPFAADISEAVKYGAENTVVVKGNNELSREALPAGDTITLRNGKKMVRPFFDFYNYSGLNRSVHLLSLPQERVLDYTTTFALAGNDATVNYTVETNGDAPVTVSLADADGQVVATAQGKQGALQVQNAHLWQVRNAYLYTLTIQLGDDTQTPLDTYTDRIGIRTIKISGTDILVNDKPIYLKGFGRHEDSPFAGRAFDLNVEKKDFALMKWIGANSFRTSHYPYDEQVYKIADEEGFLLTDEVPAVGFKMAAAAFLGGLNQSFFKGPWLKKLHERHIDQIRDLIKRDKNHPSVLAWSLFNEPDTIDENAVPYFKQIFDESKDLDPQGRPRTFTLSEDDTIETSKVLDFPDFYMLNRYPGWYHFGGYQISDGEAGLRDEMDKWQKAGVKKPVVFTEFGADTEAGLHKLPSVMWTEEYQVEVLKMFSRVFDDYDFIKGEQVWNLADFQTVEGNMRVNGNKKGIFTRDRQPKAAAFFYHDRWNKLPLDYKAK
As to the kind of experiment: In vitro DCF-G processing assay (UPLC). To be noted: DCF-G as substrate, 400 µM; pH 4.5; 37 °C.

For experiment [4], the target named is T4, Bacteroides uniformis GUS (BuGUS) (Bacteroides uniformis, UniProt A0A078SUX9).
T4 sequence (A0A078SUX9 32-886): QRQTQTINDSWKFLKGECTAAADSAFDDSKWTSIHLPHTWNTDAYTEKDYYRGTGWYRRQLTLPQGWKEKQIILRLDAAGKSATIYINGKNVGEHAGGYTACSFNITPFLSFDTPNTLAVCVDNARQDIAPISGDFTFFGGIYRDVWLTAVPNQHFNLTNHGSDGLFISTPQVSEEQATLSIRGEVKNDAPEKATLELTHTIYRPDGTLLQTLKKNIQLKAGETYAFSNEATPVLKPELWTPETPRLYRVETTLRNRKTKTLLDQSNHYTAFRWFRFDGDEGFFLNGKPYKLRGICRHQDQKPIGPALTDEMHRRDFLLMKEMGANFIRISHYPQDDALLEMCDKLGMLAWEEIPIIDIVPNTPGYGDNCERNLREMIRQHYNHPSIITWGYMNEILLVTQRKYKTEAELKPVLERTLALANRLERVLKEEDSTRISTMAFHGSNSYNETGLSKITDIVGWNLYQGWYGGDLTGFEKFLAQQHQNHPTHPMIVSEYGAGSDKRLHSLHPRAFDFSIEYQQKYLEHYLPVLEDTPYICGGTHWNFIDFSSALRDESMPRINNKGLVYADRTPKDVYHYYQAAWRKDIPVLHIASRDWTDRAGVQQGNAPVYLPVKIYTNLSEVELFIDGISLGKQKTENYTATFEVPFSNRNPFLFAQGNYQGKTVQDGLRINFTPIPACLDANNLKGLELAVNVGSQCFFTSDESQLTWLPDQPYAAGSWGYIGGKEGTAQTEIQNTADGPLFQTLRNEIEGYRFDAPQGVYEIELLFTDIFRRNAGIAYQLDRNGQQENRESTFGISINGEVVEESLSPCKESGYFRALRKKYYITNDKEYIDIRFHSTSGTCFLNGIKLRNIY
As to the kind of experiment: In vitro DCF-G processing assay (UPLC). Conditions: DCF-G as substrate, 400 µM; pH 5.5; 37 °C.

The target in experiment [5] is Clostridium perfringens GUS (CpGUS) (Clostridium perfringens, UniProt Q8VNV4). To be noted: pH 6.5; 37 °C.

Several values for one entry are separate records, joined by “and”; a condition that tells them apart may be missing. Equal values may be shown once.

Consider `O=C(Cc1ccccc1Nc1c(Cl)cccc1Cl)O[C@@H]1O[C@H](C(=O)O)[C@@H](O)[C@H](O)[C@H]1O` [DCF-G, Diclofenac acyl β-D-glucuronide], for which the “Apparent kcat” value in experiment [1] was 24.0 s⁻¹ and 24.0 ± 0.5 s⁻¹; in experiment [2], 138 s⁻¹ and 138 ± 2 s⁻¹; in experiment [3] it was 10 s⁻¹ and 10 ± 1 s⁻¹; in experiment [4] it was 10 ± 1 s⁻¹; in experiment [5] it was 61.5 ± 0.6 s⁻¹.
